Measurements published in article PMC3347614 (Acta Naturae, 2011).
Entries after “also recorded” stand apart in the source; their conditions may differ.

These compounds were tested against T1, DNA gyrase (Escherichia coli, UniProt P0AES4+P0AES6) (assay: Inhibition of DNA gyrase supercoiling of relaxed plasmid pBR322 (agarose gel electrophoresis)). Conditions: qualitative statement.
T1 construct: His6 (N); made in house; host or cells: Escherichia coli Rosetta (DE3)
T1 sequence (P0AES4 whole entry, one chain of several): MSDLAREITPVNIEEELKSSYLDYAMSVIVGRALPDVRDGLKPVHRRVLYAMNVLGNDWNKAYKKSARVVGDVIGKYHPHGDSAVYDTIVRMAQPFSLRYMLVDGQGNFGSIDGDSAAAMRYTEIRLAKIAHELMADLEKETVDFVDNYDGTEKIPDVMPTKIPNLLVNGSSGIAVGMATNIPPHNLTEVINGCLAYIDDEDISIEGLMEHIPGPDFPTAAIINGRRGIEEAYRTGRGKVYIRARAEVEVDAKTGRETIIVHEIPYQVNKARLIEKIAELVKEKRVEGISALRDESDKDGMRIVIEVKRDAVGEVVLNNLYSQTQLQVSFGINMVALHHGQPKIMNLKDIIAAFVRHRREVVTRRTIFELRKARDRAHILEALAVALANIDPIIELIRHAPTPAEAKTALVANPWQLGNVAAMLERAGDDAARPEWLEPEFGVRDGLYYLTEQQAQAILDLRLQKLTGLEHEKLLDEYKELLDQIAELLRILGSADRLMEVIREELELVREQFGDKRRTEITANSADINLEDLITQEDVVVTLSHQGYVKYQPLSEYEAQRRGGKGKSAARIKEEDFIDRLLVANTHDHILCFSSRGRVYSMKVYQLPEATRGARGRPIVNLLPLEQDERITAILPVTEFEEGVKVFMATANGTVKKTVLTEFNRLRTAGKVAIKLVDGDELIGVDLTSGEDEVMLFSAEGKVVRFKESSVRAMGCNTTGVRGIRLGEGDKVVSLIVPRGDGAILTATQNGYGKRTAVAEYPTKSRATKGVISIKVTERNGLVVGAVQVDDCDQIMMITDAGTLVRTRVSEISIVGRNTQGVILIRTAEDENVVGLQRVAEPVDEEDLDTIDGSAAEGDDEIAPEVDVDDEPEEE
Format: biochemical, E. coli
Method: The reaction mixture (30 µl) contained 35 mM Tris-HCl (pH 7.5), 24 mM KCl, 4 mM MgCl 2 , 1.4 mM ATP, 5 mM DTT, 1.8 mM spermidine, and 0.1 mg/ml of a bovine serum albumin. A mixture of DNA gyrase A and B subunits (0.4 µg) and 0.25–0.5 µg of the substrate (relaxed plasmid pBR322) were added to the reaction probe. The reaction was performed for 60 min at 25°C (for multiple samples, 96-well plates were used). After the reaction was completed, the samples were extracted with an equal volume of chloroform (30 µl). Then, 7 µl of the mixture containing […], 25% of glycerol, and 0.25% of bromphenol blue were added to the aqueous phase. The mixture was applied on a 1.2% agarose gel in TAE buffer (40 mM Tris-acetate, pH 8.0, 2 mM EDTA) and analyzed with electrophoresis (50 V, 2 h). The products were visualized under UV-light after staining with ethidium bromide. The activity of the enzyme (%) was determined from the intensity of the band corresponding to the super-coiled form of plasmid pBR322 and estimated using the Total Lab v2.01 software.
An equal volume of DMSO was added to the control. The reaction was started upon addition of DNA gyrase (0.4 µg) and relaxed plasmid pBR322 (0.25–0.5 µg), which was used as a substrate, and performed as described above. Calculations were made using the Total Lab v2.01 program.
With `C[C@H]1COc2c(F)c(F)cc3c(=O)c(C(=O)O)cn1c23` [IOS-K, (3S)-(-)-Difluoro-3-methyl-7-oxo-2,3-dihydro-7H-pyrido[1,2,3-d,e][1, 4]-benzoxazine-6-carboxylic acid] the “Inhibitory activity towards DNA gyrase, in words” value was “significant inhibitory activity”. For `CC1COc2c(ccc(F)c2F)N1` (racemic) [IOS-RS, (R,S)-7,8-Difluoro-3-methyl-2,3-dihydro-4H-benzo[b][1, 4]-oxazine], the “Inhibitory activity towards DNA gyrase, in words” value was “no significant activity”. With `CCn1cc(C(=O)O)c(=O)c2cc(F)c(N3CCNCC3)cc21` [IOS-NORFL_01, norfloxacin, reference compound] the “Inhibitory activity towards DNA gyrase, in words” value was “poor inhibitor”. With `C[C@H]1COc2c(ccc(F)c2F)N1` [IOS-S, (3S)-2,3-Dihydro-3-methyl-7,8-difluoro-1,4-benzoxazine] the “Inhibitory activity towards DNA gyrase, in words” value was “no significant activity”. For `CCOC(=O)c1cn2c3c(c(F)c(F)cc3c1=O)OC[C@@H]2C` [IOS-E, Ethyl ester of (3S)-(-)-9,10-difluoro-3-methyl-7-oxo-2,3-dihydro-7H-pyrido[1,2,3-d,e][1, 4]-benzoxazine-6-carboxylic acid], the “Inhibitory activity towards DNA gyrase, in words” value was “no significant activity; also recorded: practically inactive”.

Same assay, conditions: relative to levofloxacin, in words
In the case of `C[C@H]1COc2c(F)c(F)cc3c(=O)c(C(=O)O)cn1c23` [IOS-K, (3S)-(-)-Difluoro-3-methyl-7-oxo-2,3-dihydro-7H-pyrido[1,2,3-d,e][1, 4]-benzoxazine-6-carboxylic acid], the “Activity towards DNA gyrase compared with that of levofloxacin” value is reported as “lower by an order of magnitude”. In the case of `CN1C2=Nn3cc(C(=O)O)c(=O)c4c(F)c(F)c(N5CCCC5)c(c43)N2c2cc(F)c(F)cc21` [EV-465], the “Activity towards DNA gyrase compared with that of levofloxacin” value is reported as “two orders of magnitude”.

Same assay, conditions: relaxed pBR322, 60 min, 25°C
For `CCSc1nc(Nc2ccc(F)c(F)c2)c2cc(F)c(F)c(F)c2n1` [EV-X58-A], the “I50 (inhibition activity towards DNA gyrase)” value was “EV-X58-A Inactive”. For `Oc1ccccc1/C=N\Nc1nc(-c2ccccc2)nc2cccc(F)c12` [EV-T150-C], the “I50 (inhibition activity towards DNA gyrase)” value was “EV-T150-C Inactive”. `O=c1c2cc(F)c(F)cc2nc(/C=C/c2ccccc2O)n1-c1ccccc1` [EV-T156] was tested, and the “I50 (inhibition activity towards DNA gyrase)” value was “EV-T156 Inactive”. With `O=C(O)c1cn2c3c(c(F)c(F)cc3c1=O)NC(c1ccccc1)=N2` [EV-591] the “I50 (inhibition activity towards DNA gyrase)” value was “EV-591 Inactive”. `O=C(O)c1cn2c3c(c(N4CCCC4)c(F)cc3c1=O)OC(c1cccc([N+](=O)[O-])c1)=N2` [EV-452-D] was tested, and the “I50 (inhibition activity towards DNA gyrase)” value was “EV-452-D Inactive”. For `O=c1[nH]c(N/N=C/c2ccccc2O)nc2c(F)c(N3CCCC3)c(F)cc12` [EV-T143-B], the “I50 (inhibition activity towards DNA gyrase)” value was “EV-T143-B Inactive”. In the case of `O=C(O)c1cn2c3c(c(N4CCOCC4)c(F)cc3c1=O)SC(NC1CCCCC1)=N2` [EV-572], the “I50 (inhibition activity towards DNA gyrase)” value is reported as “EV-572 Inactive”. In the case of `O=c1nc(Nc2ncccn2)sc2c(F)c(F)c(F)cc12` [EV-N119-2], the “I50 (inhibition activity towards DNA gyrase)” value is reported as “EV-N119-2 Inactive”. With `CCOC(=O)c1cn2c3c(c(F)c(F)cc3c1=O)OC(c1cccnc1)=N2` [EV-313-D] the “I50 (inhibition activity towards DNA gyrase)” value was “EV-313-D Inactive”. `CC(C)(C)c1cc(-n2c(-c3ccccc3)nc3cc(F)c(F)cc3c2=O)no1` [EV-X149] was tested, and the “I50 (inhibition activity towards DNA gyrase)” value was “EV-X149 Inactive”. `O=C(C(=C1Nc2ccccc2N1)c1nc(=O)c2cc(F)c(F)c(F)c2s1)c1ccccc1` [EV-N51-B] was tested, and the “I50 (inhibition activity towards DNA gyrase)” value was “EV-N51-B Inactive”.

Same assay, conditions: relaxed pBR322, 60 min, 25°C; read-out: I50 (inhibition activity towards DNA gyrase)
`CN1C2=Nn3cc(C(=O)O)c(=O)c4c(F)c(F)c(N5CCCC5)c(c43)N2c2cc(F)c(F)cc21` [EV-465] gave an IC50 greater than 63.4 µM.
